In general, pEC50 refers to the EC50 on a negative log10 scale, so that one unit is a factor of ten.

Each structure is given as a SMILES string. pEC50: −log10 of the molar value.

Chain of human F508del CFTR (P13569 other isoform, or with tags, fused parts or gaps del F508-F508): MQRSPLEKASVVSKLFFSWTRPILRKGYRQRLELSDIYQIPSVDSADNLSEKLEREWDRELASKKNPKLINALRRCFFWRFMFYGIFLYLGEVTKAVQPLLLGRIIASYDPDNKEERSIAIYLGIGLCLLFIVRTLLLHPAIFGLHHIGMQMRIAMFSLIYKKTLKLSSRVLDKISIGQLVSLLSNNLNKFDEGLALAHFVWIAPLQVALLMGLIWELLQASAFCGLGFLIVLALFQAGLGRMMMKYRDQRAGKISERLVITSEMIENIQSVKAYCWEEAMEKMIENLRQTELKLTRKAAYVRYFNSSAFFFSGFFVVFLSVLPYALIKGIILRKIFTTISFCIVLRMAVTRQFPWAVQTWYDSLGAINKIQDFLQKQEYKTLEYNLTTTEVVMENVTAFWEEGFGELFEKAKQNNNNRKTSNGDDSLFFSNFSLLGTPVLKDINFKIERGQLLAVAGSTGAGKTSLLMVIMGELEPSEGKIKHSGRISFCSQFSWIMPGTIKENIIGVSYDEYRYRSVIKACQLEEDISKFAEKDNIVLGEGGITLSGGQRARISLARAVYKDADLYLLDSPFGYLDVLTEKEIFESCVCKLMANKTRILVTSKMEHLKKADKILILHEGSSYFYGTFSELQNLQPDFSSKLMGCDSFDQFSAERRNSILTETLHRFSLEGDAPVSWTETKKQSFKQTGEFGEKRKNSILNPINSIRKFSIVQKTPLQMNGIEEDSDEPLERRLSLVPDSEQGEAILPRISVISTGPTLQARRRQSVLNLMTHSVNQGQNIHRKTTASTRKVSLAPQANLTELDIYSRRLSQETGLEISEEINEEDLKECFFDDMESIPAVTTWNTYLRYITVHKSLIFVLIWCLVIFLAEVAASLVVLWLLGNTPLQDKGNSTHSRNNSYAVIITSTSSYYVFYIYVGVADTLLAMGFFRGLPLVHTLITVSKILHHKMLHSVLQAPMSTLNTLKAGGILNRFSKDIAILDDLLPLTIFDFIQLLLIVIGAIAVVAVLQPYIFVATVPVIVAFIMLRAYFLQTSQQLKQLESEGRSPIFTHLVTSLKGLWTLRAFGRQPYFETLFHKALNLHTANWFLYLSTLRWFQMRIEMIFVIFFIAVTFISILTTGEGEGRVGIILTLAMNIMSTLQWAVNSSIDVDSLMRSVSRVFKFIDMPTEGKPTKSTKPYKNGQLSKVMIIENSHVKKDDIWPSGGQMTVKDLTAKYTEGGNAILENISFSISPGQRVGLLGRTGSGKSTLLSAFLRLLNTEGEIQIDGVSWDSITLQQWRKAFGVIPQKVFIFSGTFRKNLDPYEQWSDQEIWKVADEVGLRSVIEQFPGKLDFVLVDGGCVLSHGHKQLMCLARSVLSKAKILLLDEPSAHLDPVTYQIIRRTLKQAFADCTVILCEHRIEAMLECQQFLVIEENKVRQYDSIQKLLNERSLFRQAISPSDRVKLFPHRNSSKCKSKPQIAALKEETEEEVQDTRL

In this experiment the target is human F508del CFTR (Homo sapiens (Human), UniProt P13569, DEL508-508). The experiment in a line: CFTR-YFP High Throughput Assay (YFP flux assay, FRT cells). Type of experiment: cell-based. Conditions: FRT cells expressing human F508del CFTR and YFP. As for the experimental part:
This protocol is designed to selectively screen small molecule compounds for F508del CFTR corrector activities in the YFP (yellow fluorescent protein) flux assay. In this protocol, the cells are incubated with testing compounds for 24 hours, washed with PBS, stimulated with forskolin and a standard potentiator, and fluorescence in each plate well is measured kinetically read on a 384-well plate reader, such as the Hamamatsu FDSS-6000.
YFP fluorescence intensity values are acquired at high speed before and after iodide buffer is injected to the assay cells. Iodide enters the cells via active CFTR channels in the plasma membrane, and quenches the YFP fluorescence. The rate of fluorescence quenching is proportionate to the total CFTR activity in the cell membrane. F508del CFTR correctors increase the number of CFTR molecules in the testing cell plasma membrane, and thereby accelerate YFP quenching.
This method was initially developed for bench top plate readers (Galietta, J, Jayaraman, S and Verkman, A S. Cell-based assay for high-throughput quantitative screening of CFTR chloride transport agonists. Am. J. Physiol. Cell Physiol. (2001), 281: C173), and was adapted to the HTS format (Sui J, Cotard S, Andersen J, Zhu P, Staunton J, Lee M, Lin S. Optimization of a Yellow fluorescent protein-based iodide influx high-throughput screening assay for cystic fibrosis transmembrane conductance regulator (CFTR) modulators. Assay Drug Dev Technol. (2010), 8: 656-668).
Fisher Rat Thyroid (FRT) cells stably expressing both human F508del CFTR and a halide-sensitive yellow fluorescent protein (YFP-H148Q/I152L 25,22) (Galietta et al. Am. J. Physiol Cell Physiol 281(5), C1734, 2001) were cultured on plastic surface in Coon's modified Ham's F12 medium supplemented with FBS 10%, L-glutamine 2 mM, penicillin 100 U/ml, and streptomycin […]. G418 (0.75-1.0 mg/ml) and zeocin (3.2 ug/ml) were used for selection of FRT cells expressing F508del CFTR and YFP. For primary screening, FRT cells were plated into 384-well black wall, transparent bottom microtiter plates (Costar; Corning Inc.) at a cell density of 20,000-40,000 per well. Test compound was applied to the cells at varying concentrations ranging from 2 nM-40 μM in either a 2-fold or 3-fold dilution series. Cells were incubated in a cell culture incubator at 37° C. with 5% CO2 for 24-26 h. Assay plates were washed with DPBS media (Thermo, cat# SH30028.02) to remove unbound cells and compound. Stimulation media (25 μL) containing 20 μM Forskolin & 30 μM P3 [6-(Ethyl-phenyl-sulfonyl)-4-oxo-1,4-dihydro-quinoline-3-carboxylic acid 2-methoxy-benzylamide] in Hams F-12 coon's modified media was added to the plate wells and incubated at room temperature for 60-120 min. 25 μL of HEPES-PBS-I buffer (10 mM HEPES, 1 mM MgCl2, 3 mM KCl, 1 mM CaCl2, 150 mM NaI) was then added and fluorescence quench curves (Excitation 500 nm/Emission 540 nm; exposure 136 ms) were immediately recorded on an FDSS-6000 plate reader (Hamamatsu). Quench rates were derived from least squares fitting of the data as described by Sui et al (2010).
This protocol is designed to selectively screen small molecule compounds for F508del CFTR potentiator activities in the YFP (yellow fluorescent protein) flux assay. Such compounds act acutely to stimulate CFTR already expressed on the membrane surface. In this protocol, the cells are incubated at 27° C. for 24 hours to homogeneously boost F508del CFTR expression in the cell membrane (low temperature correction), washed with PBS, treated with test compound, and CFTR activity is stimulated with forskolin for 1-2 hr. Measurement of ion flux is initiated by addition of iodide-containing buffer, and YFP quenching is kinetically recorded using a 384-well plate reader, such as the Hamamatsu FDSS-6000.
YFP fluorescence intensity values are acquired at high speed over a 1 min time course before and after iodide buffer is injected to the assay cells. […]
On to `Cc1nc2ccc(N(C)C(=O)Cn3nc(-c4cccc(F)c4)c4ccc(OC5CCCCC5)cc4c3=O)cc2o1` [Example 28, 2-(7-(cyclohexyloxy)-4-(3-fluorophenyl)-1-oxophthalazin-2(1H)-yl)-N-methyl-N-(2-methylbenzo[d]oxazol-6-yl)acetamide], for which the pEC50 was more than 5.00.
The result for `CCOc1cc2c(=O)n(CC(=O)N(C)c3ccc4nc(C)oc4c3)nc(-c3cccc(Cl)c3)c2cc1Cl` [Example 31, 2-(6-chloro-4-(3-chlorophenyl)-7-ethoxy-1-oxophthalazin-2(1H)-yl)-N-methyl-N-(2-methylbenzo[d]oxazol-6-yl)acetamide] reads more than 5.00; that for `COc1cc2c(=O)n(CC(=O)N(C)c3ccc4nc(C)oc4c3)nc(-c3cccc(F)c3)c2cc1Cl` [Example 10, 2-(6-chloro-4-(3-fluorophenyl)-7-methoxy-1-oxophthalazin-2(1H)-yl)-N-methyl-N-(2-methylbenzo[d]oxazol-6-yl)acetamide], more than 5.00.
Consider `COc1ccc2c(-c3cccc(F)c3)nn(CC(=O)N(c3ccc4nc(C)oc4c3)C3CC3)c(=O)c2c1` [Example 12, N-cyclopropyl-2-(4-(3-fluorophenyl)-7-methoxy-1-oxophthalazin-2(1H)-yl)-N-(2-methylbenzo[d]oxazol-6-yl)acetamide], for which the pEC50 was more than 5.00.
Under `COc1ccc2c(-c3cccc(Cl)c3)nn(CC(=O)N(C)c3ccc4nc(C)oc4c3)c(=O)c2c1` [Example 4, 2-(4-(3-chlorophenyl)-7-methoxy-1-oxophthalazin-2(1H)-yl)-N-methyl-N-(2-methylbenzo[d]oxazol-6-yl)acetamide] stands more than 5.00.
`Cc1nc2ccc(N(C)C(=O)Cn3nc(-c4cccc(Cl)c4)c4ccccc4c3=O)cc2o1` [Example 1, 2-(4-(3-chlorophenyl)-1-oxophthalazin-2(1H)-yl)-N-methyl-N-(2-methylbenzo[d]oxazol-6-yl)acetamide]: the negative logarithm of the EC50 (pEC50) is more than 5.00.

Values taken from patent US9682969B2, “Phthalazinone compounds and methods for the treatment of cystic fibrosis” (FLATLEY DISCOVERY LAB, LLC, priority 2013, dated 2017).
